Measured values as given in paper PMC11161032 (ACS infectious diseases, 2023).

What was measured:
[1] = system: M49L M^pro; type: biochemical, SARS-CoV-2
[2] = system: T25E M^pro; type: biochemical, SARS-CoV-2

Row | SMILES | increase of Ki compared to wild-type [1] | increase of Ki compared to wild-type [2]
1 | Cn1cnc(Cn2c(=O)[nH]/c(=N\c3cc4cn(C)nc4cc3Cl)n(Cc3cc(F)c(F)cc3F)c2=O)n1 [ensitrelvir] | 40 fold | 300 fold
2 | CC(C)(C)[C@H](NC(=O)C(F)(F)F)C(=O)N1C[C@H]2[C@@H]([C@H]1C(=O)N[C@H](C#N)C[C@@H]1CCNC1=O)C2(C)C [nirmatrelvir] | minimal to no observed impact on Ki | minimal to no observed impact on Ki
